# In publication PMC4718804 (eLife, 2015):
# Read-outs that look alike come from different tables or passages of the source.
# Assays:
# [1] = system: transfer of LDL-derived cholesterol from lysosomes to ER in CHO-7 cells; type: cell-based, hamster
# [2] = system: TR-4139 cells (CHO-7 cells stably expressing excess human NPC1); type: cell-based, hamster
# [3] = system: SREBP-2 cleavage in CHO-7 cells; type: cell-based, hamster
# [4] = system: lysosomal degradation of 125I-LDL in CHO-7 cells; type: cell-based, hamster
# [5] = system: cholesterol esterification stimulated by 25-hydroxycholesterol; type: cell-based
# ER membranes = type: biochemical
# NPC1 = NPC1 (Cricetulus griseus, UniProt Q9JLG3); type: binding, hamster
# Chain of NPC1 (Q9JLG3 23-1277 limits assumed): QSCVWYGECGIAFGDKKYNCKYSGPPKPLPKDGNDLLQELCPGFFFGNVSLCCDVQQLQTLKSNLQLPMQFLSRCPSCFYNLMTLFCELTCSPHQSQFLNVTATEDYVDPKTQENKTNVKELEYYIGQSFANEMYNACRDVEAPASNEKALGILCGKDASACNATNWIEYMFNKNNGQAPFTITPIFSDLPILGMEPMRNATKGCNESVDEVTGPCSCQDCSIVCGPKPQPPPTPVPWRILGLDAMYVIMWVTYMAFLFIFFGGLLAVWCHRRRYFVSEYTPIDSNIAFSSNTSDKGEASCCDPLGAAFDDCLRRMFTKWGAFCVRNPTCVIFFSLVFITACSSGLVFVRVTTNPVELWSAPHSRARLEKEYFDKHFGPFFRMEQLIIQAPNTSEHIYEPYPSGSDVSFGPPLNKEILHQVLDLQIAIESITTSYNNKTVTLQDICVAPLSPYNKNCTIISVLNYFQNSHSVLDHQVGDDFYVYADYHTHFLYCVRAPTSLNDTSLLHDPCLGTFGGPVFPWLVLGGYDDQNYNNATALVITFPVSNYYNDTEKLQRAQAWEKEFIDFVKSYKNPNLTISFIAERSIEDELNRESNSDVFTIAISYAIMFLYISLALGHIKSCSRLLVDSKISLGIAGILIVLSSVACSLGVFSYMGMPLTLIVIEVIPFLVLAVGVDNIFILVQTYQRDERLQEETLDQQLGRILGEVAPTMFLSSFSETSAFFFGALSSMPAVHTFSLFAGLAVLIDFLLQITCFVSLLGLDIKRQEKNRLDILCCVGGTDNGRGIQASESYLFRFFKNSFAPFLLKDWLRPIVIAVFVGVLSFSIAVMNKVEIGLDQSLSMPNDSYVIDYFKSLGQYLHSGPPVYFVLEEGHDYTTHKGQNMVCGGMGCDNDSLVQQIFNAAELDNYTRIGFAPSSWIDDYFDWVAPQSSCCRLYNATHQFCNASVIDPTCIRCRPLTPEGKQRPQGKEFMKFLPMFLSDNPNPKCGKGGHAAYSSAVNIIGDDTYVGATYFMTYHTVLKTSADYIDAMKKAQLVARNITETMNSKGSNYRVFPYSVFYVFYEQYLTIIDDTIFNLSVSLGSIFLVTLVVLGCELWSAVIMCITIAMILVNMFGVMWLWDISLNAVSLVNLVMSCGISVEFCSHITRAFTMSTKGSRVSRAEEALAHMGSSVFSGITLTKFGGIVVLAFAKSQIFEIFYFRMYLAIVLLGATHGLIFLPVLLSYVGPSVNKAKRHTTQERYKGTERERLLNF
# wild-type human NPC1 = wild-type human NPC1 (Homo sapiens, UniProt O15118); type: binding
# Chain of wild-type human NPC1 (O15118 23-1278): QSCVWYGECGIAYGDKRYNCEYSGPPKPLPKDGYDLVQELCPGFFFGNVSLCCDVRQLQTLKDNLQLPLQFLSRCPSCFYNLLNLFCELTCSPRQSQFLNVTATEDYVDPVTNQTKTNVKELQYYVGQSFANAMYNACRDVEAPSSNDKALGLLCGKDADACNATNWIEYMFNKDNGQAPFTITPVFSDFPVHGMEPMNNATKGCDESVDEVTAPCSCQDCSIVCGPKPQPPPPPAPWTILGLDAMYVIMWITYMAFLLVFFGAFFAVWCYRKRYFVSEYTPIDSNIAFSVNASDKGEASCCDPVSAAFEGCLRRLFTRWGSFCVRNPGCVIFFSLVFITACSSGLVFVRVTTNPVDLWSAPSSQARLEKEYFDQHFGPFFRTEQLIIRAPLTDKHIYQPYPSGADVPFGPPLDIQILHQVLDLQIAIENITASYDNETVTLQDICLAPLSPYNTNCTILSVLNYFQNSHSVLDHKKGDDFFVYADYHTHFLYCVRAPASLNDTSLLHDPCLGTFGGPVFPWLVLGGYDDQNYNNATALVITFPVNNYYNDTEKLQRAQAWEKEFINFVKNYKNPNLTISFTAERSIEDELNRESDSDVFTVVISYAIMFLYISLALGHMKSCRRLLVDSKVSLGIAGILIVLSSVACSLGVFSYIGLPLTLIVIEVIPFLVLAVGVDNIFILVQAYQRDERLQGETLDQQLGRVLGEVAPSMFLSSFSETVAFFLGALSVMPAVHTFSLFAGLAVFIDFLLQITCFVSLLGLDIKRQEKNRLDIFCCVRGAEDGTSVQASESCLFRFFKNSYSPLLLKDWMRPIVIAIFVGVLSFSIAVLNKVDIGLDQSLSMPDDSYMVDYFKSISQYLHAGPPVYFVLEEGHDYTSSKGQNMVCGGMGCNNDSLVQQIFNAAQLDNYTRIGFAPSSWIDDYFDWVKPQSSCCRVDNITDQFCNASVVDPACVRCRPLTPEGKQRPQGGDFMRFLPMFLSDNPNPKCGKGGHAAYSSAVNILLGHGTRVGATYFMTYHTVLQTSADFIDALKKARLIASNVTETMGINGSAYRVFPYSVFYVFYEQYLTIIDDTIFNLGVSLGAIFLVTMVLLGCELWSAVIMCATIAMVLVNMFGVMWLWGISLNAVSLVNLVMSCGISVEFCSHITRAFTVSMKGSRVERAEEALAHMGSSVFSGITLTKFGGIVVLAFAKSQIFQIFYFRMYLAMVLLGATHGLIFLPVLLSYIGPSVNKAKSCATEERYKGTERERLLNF
# Ebola virus [6] = type: cell-based
# Ebola virus [7] = conditions: cited from earlier work
# NTD of recombinant NPC1 = conditions: cited from earlier work
# [8] = system: cholesterol egress from lysosomes; conditions: cited from earlier work
# NPC1L1 = NPC1L1 (Homo sapiens, UniProt Q9UHC9); type: binding
# Chain of NPC1L1 (Q9UHC9 22-1359): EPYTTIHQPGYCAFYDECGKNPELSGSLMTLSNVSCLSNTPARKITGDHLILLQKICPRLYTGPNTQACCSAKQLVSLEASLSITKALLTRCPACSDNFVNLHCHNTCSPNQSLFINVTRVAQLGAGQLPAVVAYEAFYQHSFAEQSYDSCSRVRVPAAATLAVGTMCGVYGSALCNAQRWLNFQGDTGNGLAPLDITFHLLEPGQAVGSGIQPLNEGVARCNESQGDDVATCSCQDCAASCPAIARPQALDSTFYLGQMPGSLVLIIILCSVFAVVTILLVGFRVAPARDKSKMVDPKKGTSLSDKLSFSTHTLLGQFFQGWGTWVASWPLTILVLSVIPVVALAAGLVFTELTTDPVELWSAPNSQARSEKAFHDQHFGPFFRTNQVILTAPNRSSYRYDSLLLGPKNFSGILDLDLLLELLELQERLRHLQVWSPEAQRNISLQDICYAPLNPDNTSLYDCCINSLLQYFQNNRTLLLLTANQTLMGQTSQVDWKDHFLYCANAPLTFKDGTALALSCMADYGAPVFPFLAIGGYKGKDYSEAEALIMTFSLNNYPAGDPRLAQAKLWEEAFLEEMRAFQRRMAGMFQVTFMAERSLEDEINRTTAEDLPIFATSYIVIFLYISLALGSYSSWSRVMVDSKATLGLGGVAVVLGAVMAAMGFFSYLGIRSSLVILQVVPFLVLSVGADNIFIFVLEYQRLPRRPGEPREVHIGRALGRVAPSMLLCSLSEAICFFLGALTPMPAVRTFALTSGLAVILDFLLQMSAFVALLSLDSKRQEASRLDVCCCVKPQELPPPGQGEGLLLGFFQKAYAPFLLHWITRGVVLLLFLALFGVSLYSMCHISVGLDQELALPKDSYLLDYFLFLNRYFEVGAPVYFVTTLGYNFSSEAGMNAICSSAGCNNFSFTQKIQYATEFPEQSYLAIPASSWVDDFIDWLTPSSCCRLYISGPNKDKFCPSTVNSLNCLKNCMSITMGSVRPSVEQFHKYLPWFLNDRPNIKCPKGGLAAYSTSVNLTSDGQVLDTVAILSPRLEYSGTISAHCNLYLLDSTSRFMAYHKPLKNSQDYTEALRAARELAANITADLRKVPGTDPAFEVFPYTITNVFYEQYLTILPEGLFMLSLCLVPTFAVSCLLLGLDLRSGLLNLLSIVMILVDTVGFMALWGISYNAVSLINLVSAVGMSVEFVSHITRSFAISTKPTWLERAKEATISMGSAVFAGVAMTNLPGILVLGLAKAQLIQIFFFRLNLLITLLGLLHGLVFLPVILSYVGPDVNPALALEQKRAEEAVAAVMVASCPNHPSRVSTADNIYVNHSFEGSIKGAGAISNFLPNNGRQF
# purified NPC1 = purified NPC1 (Homo sapiens, UniProt O15118); type: binding
# Chain of purified NPC1 (O15118 23-1278): as the sequence (O15118 23-1278) above
# [9] = read-out: Inhibitory constant (Ki): concentration inhibiting incorporation of [14C]oleate into cholesteryl [14C]oleate by 50%
# [10] = read-out: Ki for inhibition of esterification of LDL-derived cholesterol
smiles,measurement,setting,value
"CCN(CC)CCOC1CCC2(C)C(=CCC3C4CCC(=O)C4(C)CCC32)C1 (stereo not drawn) [U18666A, 3-beta-[2-(diethylamino)ethoxy]androst-5-en-17-one, reference compound]",concentration at which transport of LDL-derived cholesterol from lysosomes to ER is inhibited (as low as),[1],0.03 µM
same,effect on lysosomal exit of cholesterol (incorporation of [14C]oleate into cholesteryl [14C]oleate),[1],inhibited the lysosomal exit of cholesterol
same,Ki,[1]; [9],30 nM
same,Ki,[1]; [10],20 nM
same,rise of the threshold for U18666A inhibition by overexpression of NPC1,[2],more than 100 fold
same,Ki,[2]; [10],2700 nM
same,effect on the FCS-induced reduction of nuclear SREBP-2,[3],prevented this reduction
same,effect on degradation of 125I-LDL (125I-monoiodotyrosine released into medium),[4],did not inhibit degradation
same,effect on cholesterol esterification stimulated by 25-hydroxycholesterol,[5],did not block
same,effect on cholesteryl [14C]oleate formation when cholesterol is added to ER membranes in vitro,ER membranes,does not inhibit
same,"competition of U-X crosslinking to NPC1, immunoprecipitation",NPC1,blocked
same,"competition of U-X crosslinking to the 190-kDa protein (NPC1), in-gel fluorescence",NPC1,disappeared
same,competition of U-X crosslinking to transfected wild-type NPC1,wild-type human NPC1,competed
same,fold higher concentration required for inhibition of Ebola than for inhibition of cholesterol export,Ebola virus [6],100 fold
same,concentrations of U18666A required to inhibit Ebola virus infection,Ebola virus [7],3 to 12 µM
same,effect on binding of [3H]25-hydroxycholesterol to the NTD of recombinant NPC1,NTD of recombinant NPC1,does not block binding
same,fold more potent than imipramine,[8],more than 100 fold
same,pKa,physchem,9.41
C#CCOc1ccc(C(=O)c2ccc(C(=O)OCCN(CC)CCOC3CCC4(C)C(=CCC5C6CCC(=O)C6(C)CCC54)C3)cc2)cc1 (stereo not drawn) [U-X],effect on lysosomal exit of cholesterol (incorporation of [14C]oleate into cholesteryl [14C]oleate),[1],inhibited the lysosomal exit of cholesterol
same,Ki,[1]; [9],60 nM
same,effect on the FCS-induced reduction of nuclear SREBP-2,[3],blocked
same,effect on degradation of 125I-LDL (125I-monoiodotyrosine released into medium),[4],did not inhibit degradation
same,crosslinking to NPC1,NPC1,crosslinks
same,fluorescent NPC1 after UV crosslinking of U-X,wild-type human NPC1,detected
same,crosslinking to NPC1L1,NPC1L1,did not crosslink
same,crosslinking to purified NPC1,purified NPC1,unable to crosslink
"CCN(CC)CCCC(C)Nc1ccnc2cc(Cl)ccc12 (stereo not drawn) [chloroquine, reference compound]",effect on release of LDL-derived cholesterol (cholesterol esterification),[1],blocked
same,effect on degradation of 125I-LDL (125I-monoiodotyrosine released into medium),[4],blocked the degradation
CCC(CC)CCOC1CCC2(C)C(=CCC3C2CCC2(C)C3CCC2N(C)C)C1 (stereo not drawn) [compound A],fold less active than U18666A in the cholesterol esterification assay,[1],~100 fold
same,Ki,[1]; [9],4500 nM
same,effect on the FCS-induced reduction of nuclear SREBP-2,[3],no activity
same,"competition of U-X crosslinking to NPC1, immunoprecipitation",NPC1,not inhibited
same,"competition of U-X crosslinking to the 190-kDa protein (NPC1), in-gel fluorescence",NPC1,not
same,pKa,physchem,10.2
CCCN(CCOC1CCC2(C)C(=CCC3C4CCC(=O)C4(C)CCC32)C1)Cc1cn(-c2cccnc2)nn1 (stereo not drawn) [compound B],Ki,[1]; [9],10 nM
same,"competition of U-X crosslinking to NPC1, immunoprecipitation",NPC1,blocked
CCCN(CCOC1CCC2(C)C(=CCC3C4CCC(=O)C4(C)CCC32)C1)Cc1cn(CCCCCCOC(=O)CCCCC2SCC3NC(=O)NC32)nn1 (stereo not drawn) [compound C],Ki,[1]; [9],20 nM
same,"competition of U-X crosslinking to NPC1, immunoprecipitation",NPC1,blocked
CCC(CC)CCOC1CCC2(C)C(=CCC3C4CCC(=O)C4(C)CCC32)C1 (stereo not drawn) [compound D],Ki,[1]; [9],4700 nM
same,"competition of U-X crosslinking to NPC1, immunoprecipitation",NPC1,not inhibited
CCN(CC)CCOC1CCCCC1 [compound E],Ki,[1]; [9],> 10000 nM
same,"competition of U-X crosslinking to NPC1, immunoprecipitation",NPC1,not inhibited
